Measurements: patent US9157904B2, “Wnt antagonists and methods of treatment and screening” (OncoMed Pharmaceuticals, Inc., priority 2010, dated 2015)
Values joined by “and” are separate entries in the source; they are usually repeats but may differ in a detail not shown here. Equal values may be shown once.

Tests used:
[1] = tested on: PN4 tumors; assay: FACS for ESA, CD44 and CD201 on PN4 tumors treated with variants; type: in vivo, NOD/SCID mice; details: vs control antibody
Method: Pancreatic tumor cells from the tumor-bearing mice described above were harvested and minced into approximately 1 mm^3 fragments, followed by enzymatic digestion at 1 gram per 10 ml of 300 μg/ml collagenase and 200 U/ml DNase I for 2 hours at 37° C./5% CO2 with intermittent mixing with a 10 ml pipet to disperse cells. Digestion was stopped by adding an equal volume of FACS buffer (1× Hanks Buffered Saline Solution (HBSS), 2% heat-inactivated Fetal Calf Serum (FCS) and 2 mM HEPES pH 7.4). Cells were filtered through 40 μm nylon filters and collected by centrifugation at 150×g for 5 minutes. Red blood cells were lysed in a hypotonic buffer containing ammonium chloride for 2 minutes on ice, and the cells were washed again with excess FACS buffer, and resuspended with FACS buffer at 1×10^7 cells/ml.
The freshly prepared single cell suspensions were stained for 20 minutes on ice with biotinylated anti-mouse H-2Kd (clone SF1-1.1, Biolegend, San Diego, Calif.) at 5 μg/ml, biotinylated anti-mouse CD45 (30-F11, Biolegend) at […], and streptavidin-PerCP-Cy5.5 (eBioscience, San Diego, Calif.) at 1:200 dilution. Unbound antibody was removed by washing twice with 10 volume of FACS buffer. […]

[2] = tested on: PE13 breast tumor; assay: PE13 breast tumor xenograft, tumor growth; type: in vivo, NOD/SCID mice; details: FZD8-Fc 5 mg/kg i.p. twice a week, single agent
Method: Dissociated PE13 breast tumor cells (50,000 per animal) were injected subcutaneously into the mammary fat pads of NOD/SCID mice. Mice were monitored weekly and tumors were allowed to grow until they were approximately 106 mm^3. On day 27 post cell injection the mice were randomized into four treatment groups (n=10 mice/group) and treated with control antibody, FZD8-Fc (54F03), taxol or a combination of FZD8-Fc and taxol. Taxol was administered intraperitoneally at a dose of 7.5 mg/kg once a week and FZD8-Fc was administered intraperitoneally at a dose of 5 mg/kg twice a week.

[3] = tested on: canonical Wnt signaling pathway; assay: Luciferase reporter assay in STF293 cells with Wnt3a-conditioned medium; type: cell-based; details: blocking of Wnt3a-induced luciferase in STF293 cells; relative to reference standard set at 100%
Method: The ability of the FZD8-Fc variants to block or inhibit activation of the Wnt signaling pathway was determined in vitro using a luciferase reporter assay. STF293 cells were cultured in DMEM supplemented with antibiotics and 10% FCS. The STF293 cells are stably transfected with a reporter vector containing seven copies of the TCF transcriptional response element linked to a promoter upstream of a firefly luciferase reporter gene. This construct measures the activity of the canonical Wnt signaling pathway. The cells were added to cultures plates at 10,000 cells per well. After an overnight incubation the FZD8-Fc variants or control mouse JAG1-Fc were added in combination with Wnt3a-conditioned medium. The FZD8-Fc variants and JAG1-Fc were used at concentrations of 20, 4, 0.8, 0.16, 0.03, 0.006, 0.0012, and 0.0003 ug/ml. The cells were incubated in 25% Wnt3A-conditioned medium that had been prepared from L cells that stably express Wnt3a. After overnight incubation (approximately 18 hrs), luciferase levels were measured using a Steady-Glo® luciferase assay kit (Promega, Madison, Wis.).
The blocking activity of the FZD8-Fc variants was determined and is presented in Table 3 as relative activity as compared to the same reference standard run in each assay which was set at 100%.

[4] = tested on: PN21 pancreatic tumors; assay: In vivo limiting dilution assay of treated PN21 tumors; design: species or system NOD/SCID mice; details: day 72
Excerpt: As described above in Example 3, a limiting dilution assays was used to assess the effect of treatment with FZD8-Fc alone or in combination with gemcitabine on solid tumor cancer stem cells in the PN21 pancreatic tumor model.
Control and treated tumors from the PN21 xenograft study described above were harvested at the end of the study. The tumors were processed and dissociated into single cells. […] The human cells in the suspension were harvested, counted, and stained for cell surface markers and appropriate cell doses (30, 90, and 270 cells) in FACS buffer were mixed in a 1:1 mixture with Matrigel and injected subcutaneously in NOD/SCID mice (10 mice per cell dose per treatment group). […]
At the desired time point, the percentage of mice with detectable tumors was determined in all groups injected with treated tumor cells and compared to the percentage of mice with detectable tumors in control treated cells. For example, the number of mice injected with 125 control antibody-treated tumor cells that have detectable tumors is determined and compared to the number of mice injected with 125 FZD8-Fc treated tumor cells that have detectable tumors.
On day 72 after injection of the cells, tumor take rates in the various groups were determined and the cancer stem cell frequency was calculated using L-Calc™ software (StemCell Technologies Inc.; www.stemcell.com).

[5] = tested on: PN4 tumors; assay: Alcian blue staining of treated PN4 tumors; type: in vivo, NOD/SCID mice; details: day 85, vs control antibody or gemcitabine
Method: Increased cell differentiation of PN4 and PN8 tumors with FZD8-Fc treatment. Control and treated tumors from the OMP-PN4 xenograft study described above (Example 3) were harvested at the end of the study (day 85). Tumors were fixed in formalin, embedded in paraffin, and tumor sections of 4 μm thickness were cut. After deparaffinization and hydration, the sections were treated with aqueous acetic acid for 5 minutes at room temperature. The sections were then treated with 1% alcian blue in 3% aqueous acetic acid for 30 minutes and washed with water. Sections were counter-stained in neutral fast red, dehydrated and mounted. Using this method, sialomucins in the tissue samples stain blue and the background appears as pink or red.

54F03: Fri domain of human FZD8 fused to human IgG1 Fc with GRA linker; SEQ ID NO:1
percentage of CD44^hi cells [1]: decreased the percentage of CD44^hi cells
percentage of CD201^+CD44^+ cells [1]: decreased the percentage of CD201^+CD44^+ cells
reduction of tumor growth relative to control antibody [2]: 20%
% Relative Activity [3]: 107% and 143%
reduction of cancer stem cell frequency as compared to control antibody [4]: four-fold
cells expressing sialomucins (alcian blue) [5]: increase in cells expressing sialomucins
